Reference: patent publication US8338607B2, “Cyclic amine compounds and agents for pest control” (Nippon Soda Co., Ltd., priority 2005, dated 2012)

Columns and labels:
Tetranychus urticae = test: Effectiveness against Tetranychus urticae (common bean leaf, wettable powder drug solution); format: in vivo; conditions: adult female Tetranychus urticae resistant to organophosphorus pesticides; 125 ppm; examined 3 days after the application; 25° C., 65% humidity
Panonychus citri = test: Effectiveness against Panonychus citri (mandarin orange leaf, emulsion applied with rotary spreading tower); format: in vivo; conditions: adult female Panonychus citri; 125 ppm; adults removed 3 days after the application; whether eggs could grow to adults examined on the 11th day
Procedure: 10 adult female Panonychus citri were inoculated on the leaf of a mandarin orange, which was placed in a petri dish. After the inoculation, the drug solution, which was prepared by following the method of the emulsion shown in Example 2 of the drugs and by diluting with water to achieve the compound concentration of 125 ppm, was applied using a rotary spreading tower. The dish was placed in a temperature-controlled room where the temperature and humidity were set to 25° C. and 65% respectively, adults were removed 3 days after the application, and whether eggs laid during these 3 days could grow to become adults was examined on the 11th day.

Row | SMILES | insecticidal rate (adulticidal rate) (Tetranychus urticae) | insecticidal rate (Panonychus citri)
1 | FC(F)(F)c1ccc(OC2CC3CCC(C2)N3c2ccc(C(F)(F)F)cn2)nc1 (stereo not drawn) [Compound 2-3, 3α-(5-trifluoromethyl-2-pyridyloxy)-8-(5-trifluoromethyl-pyridine-2-yl)-8-azabicyclo[3.2.1]octane] | 100% | –
2 | CCCOc1cc(C(F)(F)F)ccc1OC1CC2CCC(C1)N2c1ccc(C(F)(F)F)c(F)c1 (stereo not drawn) [Compound 4-70] | 100% | 100%
